Laboratory results from ChEMBL document CHEMBL3885881, “DrugMatrix”.

Organism: Rattus norvegicus
Test: DrugMatrix - Regimen: Daily Repeat
Format: toxicity, organism-based, Sprague-Dawley
Parameters: regimen Daily Repeat, gender Male, age 6-8 weeks
Conditions: in vivo, po, route oral GAVAGE, vehicle .5 % CMC; for ABSOLUTE BASOPHIL / ABSOLUTE EOSINOPHIL / ABSOLUTE LYMPHOCYTE / ABSOLUTE MONOCYTE / ABSOLUTE SEGMENTED NEUTROPHIL / BASOPHIL / ERYTHROCYTE COUNT / HEMATOCRIT / HEMOGLOBIN / LYMPHOCYTE / MEAN CORPUSCULAR HEMOGLOBIN / MEAN CORPUSCULAR HEMOGLOBIN CONCENTRATION / MEAN CORPUSCULAR VOLUME / NEUTROPHIL / NUCLEATED RED BLOOD CELLS / PLATELET COUNT: tissue Blood; for ALANINE AMINOTRANSFERASE / ALKALINE PHOSPHATASE / ASPARTATE AMINOTRANSFERASE / BLOOD UREA NITROGEN / CHOLESTEROL / CREATINE PHOSPHOKINASE / CREATININE / GLUCOSE / LACTATE DEHYDROGENASE / LIPASE / PHOSPHORUS / POTASSIUM / SODIUM / TOTAL BILIRUBIN / TOTAL PROTEIN / CARBON DIOXIDE: tissue Plasma
[1] = 0.06 mg/kg, 120 h, dose level Low, time 5 day
[2] = […], 72 h, dose 0.25 mg/Kg, dose level High, time 3 day
[3] = […], 120 h, dose 0.25 mg/Kg, dose level High, time 5 day

Structure (SMILES): CC(=O)CC(c1ccccc1)c1c(O)c2ccccc2oc1=O (stereo not given) [WARFARIN]
- ABSOLUTE BASOPHIL [1]: 0 CELLS/uL
- ABSOLUTE EOSINOPHIL [1]: 123.33 CELLS/uL
- ABSOLUTE LYMPHOCYTE [1]: 12690 CELLS/uL
- ABSOLUTE MONOCYTE [1]: 175.33 CELLS/uL
- ABSOLUTE SEGMENTED NEUTROPHIL [1]: 1111.33 CELLS/uL
- BASOPHIL [1]: 0%
- ERYTHROCYTE COUNT [1]: 5.59 x10E6/uL
- HEMATOCRIT [1]: 35.53%
- HEMOGLOBIN [1]: 13.5 G/DL
- LYMPHOCYTE [1]: 90%
- MEAN CORPUSCULAR HEMOGLOBIN [1]: 24.2 pg
- MEAN CORPUSCULAR HEMOGLOBIN CONCENTRATION [1]: 38 G/DL
- MEAN CORPUSCULAR VOLUME [1]: 63.67 fL
- NEUTROPHIL [1]: 8%
- NUCLEATED RED BLOOD CELLS [1]: 0 /100WBC
- PLATELET COUNT [1]: 1320.67 x10E3/uL
- ALANINE AMINOTRANSFERASE [1]: 47.33 u/L
- ALKALINE PHOSPHATASE [1]: 339.67 u/L
- ASPARTATE AMINOTRANSFERASE [1]: 76.33 u/L
- BLOOD UREA NITROGEN [1]: 16 mg/dL
- CHOLESTEROL [1]: 66.67 mg/dL
- CREATINE PHOSPHOKINASE [1]: 293.33 u/L
- CREATININE [1]: 0.14 mg/dL
- GLUCOSE [1]: 149 mg/dL
- LACTATE DEHYDROGENASE [1]: 203 u/L
- LIPASE [1]: 9.33 u/L
- PHOSPHORUS [1]: 13.2 mg/dL
- POTASSIUM [1]: 6.78 MEQ/L
- SODIUM [1]: 144.27 MEQ/L
- TOTAL BILIRUBIN [1]: 0.2 mg/dL
- TOTAL PROTEIN [1]: 6 G/DL
- ABSOLUTE BASOPHIL [2]: 0 CELLS/uL
- ABSOLUTE EOSINOPHIL [2]: 246.33 CELLS/uL
- ABSOLUTE LYMPHOCYTE [2]: 13716 CELLS/uL
- ABSOLUTE MONOCYTE [2]: 364 CELLS/uL
- ABSOLUTE SEGMENTED NEUTROPHIL [2]: 1007 CELLS/uL
- BASOPHIL [2]: 0%
- ERYTHROCYTE COUNT [2]: 5.82 x10E6/uL
- HEMATOCRIT [2]: 37.73%
- HEMOGLOBIN [2]: 14.07 G/DL
- LYMPHOCYTE [2]: 89.33%
- MEAN CORPUSCULAR HEMOGLOBIN [2]: 24.2 pg
- MEAN CORPUSCULAR HEMOGLOBIN CONCENTRATION [2]: 37.33 G/DL
- MEAN CORPUSCULAR VOLUME [2]: 64.87 fL
- NEUTROPHIL [2]: 6.67%
- NUCLEATED RED BLOOD CELLS [2]: 0 /100WBC
- PLATELET COUNT [2]: 1397.33 x10E3/uL
- ALANINE AMINOTRANSFERASE [2]: 57 u/L
- ALKALINE PHOSPHATASE [2]: 354 u/L
- ASPARTATE AMINOTRANSFERASE [2]: 82 u/L
- BLOOD UREA NITROGEN [2]: 15.33 mg/dL
- CARBON DIOXIDE [2]: 25.67 mmol/L
- CHOLESTEROL [2]: 86 mg/dL
- CREATINE PHOSPHOKINASE [2]: 467.67 u/L
- CREATININE [2]: 0.18 mg/dL
- GLUCOSE [2]: 156 mg/dL
- LACTATE DEHYDROGENASE [2]: 145 u/L
- LIPASE [2]: 10.67 u/L
- PHOSPHORUS [2]: 13.7 mg/dL
- POTASSIUM [2]: 6.91 MEQ/L
- SODIUM [2]: 145.27 MEQ/L
- TOTAL BILIRUBIN [2]: 0.23 mg/dL
- TOTAL PROTEIN [2]: 5.93 G/DL
- ABSOLUTE BASOPHIL [3]: 0 CELLS/uL
- ABSOLUTE EOSINOPHIL [3]: 86.67 CELLS/uL
- ABSOLUTE LYMPHOCYTE [3]: 13093.33 CELLS/uL
- ABSOLUTE MONOCYTE [3]: 240.67 CELLS/uL
- ABSOLUTE SEGMENTED NEUTROPHIL [3]: 779.33 CELLS/uL
- BASOPHIL [3]: 0%
- ERYTHROCYTE COUNT [3]: 5.78 x10E6/uL
- HEMATOCRIT [3]: 36.23%
- HEMOGLOBIN [3]: 13.7 G/DL
- LYMPHOCYTE [3]: 92%
- MEAN CORPUSCULAR HEMOGLOBIN [3]: 23.7 pg
- MEAN CORPUSCULAR HEMOGLOBIN CONCENTRATION [3]: 37.87 G/DL
- MEAN CORPUSCULAR VOLUME [3]: 62.63 fL
- NEUTROPHIL [3]: 5.67%
- NUCLEATED RED BLOOD CELLS [3]: 0 /100WBC
- PLATELET COUNT [3]: 1328.33 x10E3/uL
- ALANINE AMINOTRANSFERASE [3]: 45.33 u/L
- ALKALINE PHOSPHATASE [3]: 285 u/L
- ASPARTATE AMINOTRANSFERASE [3]: 79.67 u/L
- BLOOD UREA NITROGEN [3]: 17.33 mg/dL
- CARBON DIOXIDE [3]: 26.67 mmol/L
- CHOLESTEROL [3]: 69.67 mg/dL
- CREATINE PHOSPHOKINASE [3]: 518.33 u/L
- CREATININE [3]: 0.2 mg/dL
- GLUCOSE [3]: 156.33 mg/dL
- LACTATE DEHYDROGENASE [3]: 92.67 u/L
- LIPASE [3]: 8.67 u/L
- PHOSPHORUS [3]: 13.27 mg/dL
- POTASSIUM [3]: 6.55 MEQ/L
- SODIUM [3]: 147.93 MEQ/L
- TOTAL BILIRUBIN [3]: 0.17 mg/dL
- TOTAL PROTEIN [3]: 6.33 G/DL
